Experimental data from patent publication US20110077270A1, “Compositions and Methods for Treating Ocular Inflammation with Lower Risk of Increased Intraocular Pressure” (priority 2009, published 2011).
Several values for one entry are separate records, joined by “and”; a condition that tells them apart may be missing. Equal values may be shown once. Read-outs that look alike come from different tables or passages of the source.

Assays:
monkey TM cells = assay: Cell metabolic activity (resazurin reduction) assay in monkey TM cells; type: cell-based, rhesus monkeys (Macaca mulatta); settings: 3 to 300 nM, end of treatment period; results not shown
Procedure: A modification of previously described methods^40 was employed to evaluate cell metabolic activity, an index of cell viability. After collection of CM samples, cells were briefly rinsed in modified Hanks balanced salt solution containing Ca^++ and Mg^++ (“MHBSS”), and then 0.0025% (w/v) resazurin (Sigma) in MHBSS was added to sample wells. Plates were incubated (37° C., 5% CO2, 95% humidity) for 90 minutes, after which fluorescence (Excitation 560 nm, Emission 590 nm) was read (Victor 3V Multilabel Counter, Wallac, Turku, Finland). As a positive control for decreased cellular metabolic reduction of resazurin, in each plate an additional well of vehicle control-treated cells was preincubated with 0.06% hydrogen peroxide (Fisher, Atlanta, Ga.) in MHBSS.

[1] = system: myocilin mRNA in monkey TM cells; assay: Myocilin mRNA expression in monkey TM cells (qRT-PCR); type: cell-based, rhesus monkeys (Macaca mulatta); settings: for EC50: expression of myocilin mRNA, weighted averages, two dose-response studies each using two monkey TM cell strains
Procedure: (§1) For each study, up to nine TM cell strains, each derived from an individual monkey, were tested separately. Cells were thawed and seeded into 12- or 48-well clusters (Falcon, BD Biosciences; 150,000 and 30,000 cells/well, respectively) in proliferation medium. When cells were 75% to 90% confluent proliferation medium was replaced by a 5:4 mixture of HESFM and Dulbecco's MEM, respectively, supplemented with 10% FBS, with added taurine, ascorbic acid phosphate, glutathione, and antibiotic as for proliferation medium (above), and with 2.72 g/L glucose and 1.72 g/L fructose. At confluence, the medium was changed to Dulbecco's MEM, containing 10% FBS^40, ascorbic acid phosphate, antibiotic, 2.72 g/L glucose and 1.72 g/L fructose. Cells were maintained as stable, confluent monolayers in this latter medium for 4 to 7 days before experimental treatments commenced.
After quantification of purified total RNA (Quant-iT RNA Assay kit, Molecular Probes, Eugene, Oreg.), equivalent amounts of this RNA were apportioned to generate first-strand cDNAs for each treatment sample, using random primers, (Affinity Script, Stratagene, La Jolla, Calif.). Oligonucleotide myocilin primers, designed based on the cynomolgus MYOC gene, and fluorescent Taqman probe (Applied Biosystems, Foster City, Calif.) were used for PCR amplification. Equal amounts of total RNA-equivalent mass (approximate range […]) reactant cDNA were added to the PCR Master Mix (Stratagene) and myocilin primers/Taqman probe. Amplification was performed in a thermocycler (Mx3005P, Stratagene), with an initial denaturation step at 95° C. for 10 min, followed by 40 cycles of 95° C. for 15 sec and 60° C. for 1 min for extension. Every run included standard controls (i.e., either without reverse transcriptase or lacking template). Relative quantities of myocilin mRNA abundance were determined using differences in threshold cycles (“Ct”) between vehicle control and drug treatments. Each sample was analyzed in triplicate wells, and the corresponding values averaged for further quantitative analysis. Myocilin mRNA abundance, expressed in proportion to vehicle control-treated samples, was calculated using the Mx3005P software.
Data underwent Box-Cox transformations for one- or two-way analysis of variance (ANOVA), followed by the Tukey-Kramer test, using JMP software (SAS, Cary, N.C.). The specific transformations used for analyses are mentioned in the figure legends. For each set of triplicate samples from the individual monkey TM cell strains tested, Western blot densitometry values for myocilin protein detected in CM (as geometric means), and relative abundance of myocilin mRNA (as geometric means), were plotted as a function of drug concentrations. P-values less than 0.05 were considered statistically significant. […]

[2] = system: myocilin protein in CM of monkey TM cells; assay: Myocilin protein in conditioned media of monkey TM cells (Western blot); type: cell-based, rhesus monkeys (Macaca mulatta); settings: for EC50: nine monkey TM cell strains; for Efficacy ± SE (weighted average; %): estimated efficacy at 300 nM for inducing myocilin protein expression, normalized to DEX (100%), nine experiments (one per strain)
Procedure: as §1
All treatments, including media for vehicle control samples, contained a final DMSO concentration of 0.1% (v/v) across the concentration ranges selected. Treatments lasted 96 hours, with one exchange of medium on the third treatment day. The final 48-hr conditioned media (“CM”) samples were collected in their entirety (0.5 ml), centrifuged briefly to remove particulates, aliquoted, and stored at −20° C. until thawed for analysis.
Undiluted CM was combined with denaturing 4× sample buffer containing 2% SDS, and samples were loaded at equivalent protein content onto 4-20% Tris-HCl polyacrylamide gels (BioRad, Hercules, Calif.). After electrophoresis, proteins underwent wet transfer to […] nitrocellulose (BioRad) for immunoblotting. The filters were blocked with 5% (w/v) nonfat dry milk (BioRad) in Tris-buffered saline plus 0.02% (v/v) Tween-20 (“TBST”; Tween-20 from Calbiochem, San Diego, Calif.), and incubated with a 1:2000 dilution (from 200 μg/ml) of goat anti-recombinant human myocilin antibody (R&D Systems, Minneapolis, Minn.) in blocking buffer, overnight at 4° C. After washing in TBST, the filters were incubated with a 1:25,000 dilution (from 0.8 mg/ml) of horseradish peroxide-conjugated mouse anti-goat IgG (H+L) (Pierce Biotechnology, Rockford, Ill.) in blocking buffer, for 90 minutes at room temperature. After washing in TBST, the blots were developed in SuperSignal® West Dura Extended Duration Substrate (Pierce) for chemiluminescent detection. Bands corresponding to myocilin were digitally captured and stored using a FluorChem Imager (Alpha-Innotech, San Leandro, Calif.), with all blots receiving equal exposure/capture times. The imager system software was then used to calculate pixel density for equivalent rectangular areas incorporating the bands.
Data underwent Box-Cox transformations for one- or two-way analysis of variance (ANOVA), followed by the Tukey-Kramer test, using JMP software (SAS, Cary, N.C.). The specific transformations used for analyses are mentioned in the figure legends. For each set of triplicate samples from the individual monkey TM cell strains tested, Western blot densitometry values for myocilin protein detected in CM (as geometric means), and relative abundance of myocilin mRNA (as geometric means), were plotted as a function of drug concentrations. P-values less than 0.05 were considered statistically significant. Dose-response curve data were fitted to a re-parameterized four-parameter logistic equation using similar methodology to that previously described, and these equations permitted estimation of the EC50 values±95% confidence intervals, for each drug treatment.

[3] = system: rabbit paracentesis model; assay: Clinical evaluation (slit lamp clinical score), rabbit paracentesis model; type: in vivo; set-up: key to Clinical Score −180 min / Clinical Score −5 min / Clinical Score +115 min: 0: normal; 1: discrete dilatation of iris and conjunctival vessels; 2: moderate dilatation of iris and conjunctival vessels; 3: intense iridal hyperemia with flare in the anterior chamber; 4: intense iridal hyperemia with flare in the anterior chamber and presence of fibrinous exudates; settings: for Clinical Score −5 min: 5 min before first paracentesis; for Clinical Score −5 min / Clinical Score +115 min / Clinical Score −180 min: individual eye; for Clinical Score +115 min: 5 min before second paracentesis; for Clinical Score −180 min: basal
[4] = Primates, expression of myocilin protein, weighted averages, read-out: EC50 ± SE
[5] = Primates, 96 hours treatment, read-out: EC50, myocilin protein expression
[6] = 0.1% topical formulation, +115 min
[7] = 0.1% topical formulation, −5 min
[8] = 0.1% topical formulation, −180 min (basal)
[9] = 0.5% topical formulation, +115 min

For `C[C@@H]1C[C@H]2[C@@H]3CCC4=CC(=O)C=C[C@]4(C)[C@@]3(F)[C@@H](O)C[C@]2(C)[C@@]1(O)C(=O)CO` [Dex, dexamethasone, reference compound], which “Cell viability compared to vehicle controls (resazurin reduction)” value (monkey TM cells) is on record?
The value was “nor did any drug treatments result in a loss of cell viability”.

And the EC50 ([1]; Primates)?
The EC50 was 14.7 ± 1.27 nM.

And the “Myocilin protein level over control” value ([2]; 300 nM, one of the monkey TM cell strains, CM of second 48-hour period)?
Its value is 1233%.

And the EC50 [2, 4]?
The EC50 was 14.6 ± 2.65 nM.

What about the EC50 [2, 5] of the same compound?
The EC50 was 14.6 nM.

And the “Efficacy ± SE (weighted average; %)” value [2]?
The value was 100 ± 6.09%.

What about the “Clinical Score −5 min” value ([3]; 0.1% topical formulation) of the same compound?
Its value is 0 (6×) and 1 (2×).

What about the “Clinical Score +115 min” value ([3]; 0.1% topical formulation) of the same compound?
Its value is 1 (6×) and 3 (2×).

What about the “Percentage of eyes with clinical score 1” value [3, 6] of the same compound?
Its value is 75%.

And the “Percentage of eyes with clinical score 3” value [3, 6]?
The value was 25%.

What about the “Clinical Score −180 min” value ([3]; 0.1% topical formulation) of the same compound?
The value was 0.

And the “Percentage of eyes with clinical score 0” value [3, 7]?
Its value is 75%.

What about the “Percentage of eyes with clinical score 1” value [3, 7] of the same compound?
The value was 25%.

And the “Percentage of eyes with clinical score 0” value [3, 8]?
Its value is 100%.

How did the “Cell viability compared to vehicle controls (resazurin reduction)” value (monkey TM cells) turn out when `Cc1ccc2c(NCC(O)(CC(C)(C)c3cc(F)cc4c3OCC4)C(F)(F)F)cccc2n1` (stereo not shown) [BOL-303242-X] was run?
Its value is “nor did any drug treatments result in a loss of cell viability”.

And the “Myocilin mRNA abundance compared with DEX” value ([1]; 3 to 300 nM)?
The value was “significantly lower mRNA abundance values at all doses compared with DEX”.

And the Emax at 0.3 µM ([1]; Primates, read-out: Maximal efficacy for myocilin mRNA expression, relative to DEX, 300 nM, single monkey TM cell strain (FIG. 5))?
The Emax at 0.3 µM was about 67%.

And the EC50 ([1]; Primates)?
Its EC50 is 20.8 ± 2.74 nM.

And the “Myocilin protein released by cultured monkey TM cells compared to DEX” value ([2]; 3 to 300 nM)?
Its value is “significantly lower levels of myocilin protein”.

And the Emax ([2]; Primates, read-out: Maximal efficacy for myocilin protein accumulation, relative to that observed after DEX treatment, computed across all nine TM cell strains)?
Its Emax is about 50%.

And the EC50 [2, 4]?
Its EC50 is 21 ± 4.28 nM.

And the EC50 [2, 5]?
The EC50 was 21 nM.

What about the “Efficacy ± SE (weighted average; %)” value [2] of the same compound?
Its value is 53.12 ± 2.20%.

What about the “Clinical Score −5 min” value ([3]; 0.1% topical formulation) of the same compound?
Its value is 0.

And the “Clinical Score +115 min” value ([3]; 0.1% topical formulation, listed as BOL)?
The value was 2 (6×) and 3 (2×).

What about the “Percentage of eyes with clinical score 2” value [3, 6] of the same compound?
The value was 75%.

And the “Percentage of eyes with clinical score 3” value [3, 6]?
Its value is 25%.

And the “Clinical Score −180 min” value ([3]; 0.1% topical formulation)?
Its value is 0.

And the “Percentage of eyes with clinical score 0” value [3, 7]?
Its value is 100%.

And the “Percentage of eyes with clinical score 0” value [3, 8]?
Its value is 100%.

And the “Clinical Score −5 min” value ([3]; 0.5% topical formulation)?
The value was 0.

What about the “Clinical Score +115 min” value ([3]; 0.5% topical formulation, listed as BOL) of the same compound?
Its value is 2 (5×) and 1 (3×).

And the “Percentage of eyes with clinical score 1” value [3, 9]?
Its value is 37.5%.

And the “Percentage of eyes with clinical score 2” value [3, 9]?
Its value is 62.5%.

And the “Clinical Score −180 min” value ([3]; 0.5% topical formulation)?
Its value is 0.

What about the “Percentage of eyes with clinical score 0” value ([3]; 0.5% topical formulation, −5 min) of the same compound?
Its value is 100%.

And the “Percentage of eyes with clinical score 0” value ([3]; 0.5% topical formulation, −180 min (basal))?
The value was 100%.

What about the “Clinical Score −5 min” value ([3]; 1% topical formulation) of the same compound?
Its value is 0.

What about the “Clinical Score +115 min” value ([3]; 1% topical formulation) of the same compound?
The value was 2.

What about the “Percentage of eyes with clinical score 2” value ([3]; 1% topical formulation, +115 min) of the same compound?
The value was 100%.

And the “Clinical Score −180 min” value ([3]; 1% topical formulation)?
The value was 0.

And the “Percentage of eyes with clinical score 0” value ([3]; 1% topical formulation, −5 min)?
The value was 100%.

What about the “Percentage of eyes with clinical score 0” value ([3]; 1% topical formulation, −180 min (basal)) of the same compound?
Its value is 100%.
